Holding throughout (type): cell-based
Assay [1] addresses T1, human RXRα ligand binding domain (Gal4 hybrid receptor) (Homo sapiens, UniProt P19793).
T1 construct: expressed in transfected cells; host or cells: HEK293T
T1 sequence (P19793 227-458 limits assumed): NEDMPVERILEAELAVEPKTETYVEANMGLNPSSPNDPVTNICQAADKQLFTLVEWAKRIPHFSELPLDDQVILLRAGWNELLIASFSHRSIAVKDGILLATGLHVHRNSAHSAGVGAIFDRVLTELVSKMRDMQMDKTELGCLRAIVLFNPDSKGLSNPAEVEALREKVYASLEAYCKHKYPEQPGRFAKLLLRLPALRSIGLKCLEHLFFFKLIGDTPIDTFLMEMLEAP
In words: Gal4 hybrid reporter gene assay RXRα. As to conditions: HEK293T cells, n ≥ 4, read-out: RXRα EC50 ± SEM. Here is the method: (§1) The 20 top-ranked synthetic compounds were selected and tested in vitro for their modulatory activity on RXR (Supplementary Table 1). Compounds were tested in specific hybrid reporter gene assays for RXRα, RXRβ and RXRγ modulation[39]–[41]. These assays rely on a constitutively expressed hybrid receptor composed of the respective human RXR ligand binding domain and the DNA binding domain of the Gal4 receptor from yeast. A Gal4 responsive firefly luciferase was used as reporter gene and constitutively expressed renilla luciferase served as internal control for transfection efficiency and test compound toxicity. All selected compounds were tested at 50 µM concentration on RXRα and for active compounds (Supplementary Fig. 1), dose response curves were recorded on all three RXR subtypes.
(§2) The Gal4 hybrid reporter gene assays were conducted as reported previously[39]–[41]. pFA-CMV-based constructs comprising the ligand binding domain of the human nuclear receptor in question were used as expression plasmids for the chimera receptors. pFR-Luc (Stratagene) served as reporter plasmid and pRL-SV40 (Promega) for normalization of transfection efficiency and cell growth. The assays were conducted in 96-well format in HEK293T cells that were cultured as described previously[39]–[41]. Transient transfection was carried out using Lipofectamine LTX reagent (Invitrogen) according to the manufacturer’s protocol. After transfection and incubation with test compounds (12–14 h), cells were assayed for luciferase activity using Dual-Glo™ Luciferase Assay System (Promega) according to the manufacturer’s protocol. Luminescence was measured with an Infinite M200 luminometer (Tecan Deutschland GmbH). All hybrid assays were validated with reference agonists (PPARα: GW7647; PPARγ: pioglitazone; PPARδ: L165,041; LXRα/β: T0901317; FXR: GW4064; RXRs: bexarotene; RARs: tretinoin; VDR: calcitriol; CAR: CITCO; PXR: SR12813) which yielded EC50 values in agreement with literature. The assays were conducted in duplicates with at least two independent repeats and for active compounds repeated without hybrid receptor coding DNA for every test compound at the highest tested concentration to exclude unspecific effects.
(§3) Supplementary Figure 2. Dose-response curves for RXRα activation. Compounds were tested in specific hybrid reporter gene assays for RXRα, RXRβ and RXRγ modulation.^1–3 These assays rely on a constitutively expressed hybrid receptor composed of the respective human RXR ligand binding domain and the DNA binding domain of the Gal4 receptor from yeast. A Gal4 responsive firefly luciferase was used as reporter gene and constitutively expressed renilla luciferase served as internal control for transfection efficiency and test compound toxicity. […]
For orientation: Reporter assays use an easily measured gene product as a stand-in for the process of interest.

In assay [2] the target is T2, human RXRβ ligand binding domain (Gal4 hybrid receptor) (Homo sapiens, UniProt P28702).
T2 construct: expressed in transfected cells; host or cells: HEK293T
T2 sequence (P28702 296-529 limits assumed): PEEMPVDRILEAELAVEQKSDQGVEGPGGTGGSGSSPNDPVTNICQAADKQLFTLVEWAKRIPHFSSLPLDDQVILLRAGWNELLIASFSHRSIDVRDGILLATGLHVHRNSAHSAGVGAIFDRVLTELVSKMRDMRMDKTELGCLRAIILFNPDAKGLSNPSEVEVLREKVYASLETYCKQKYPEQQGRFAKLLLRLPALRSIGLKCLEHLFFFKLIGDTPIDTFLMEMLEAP
Briefly: Gal4 hybrid reporter gene assay RXRβ. As to conditions: HEK293T cells, n ≥ 4, read-out: RXRβ EC50 ± SEM. The method, then:
as §1, §2, §3

Assay [3] has as its target T3, human RXRγ ligand binding domain (Gal4 hybrid receptor) (Homo sapiens, UniProt P48443).
T3 construct: expressed in transfected cells; host or cells: HEK293T
T3 sequence (P48443 231-459 limits assumed): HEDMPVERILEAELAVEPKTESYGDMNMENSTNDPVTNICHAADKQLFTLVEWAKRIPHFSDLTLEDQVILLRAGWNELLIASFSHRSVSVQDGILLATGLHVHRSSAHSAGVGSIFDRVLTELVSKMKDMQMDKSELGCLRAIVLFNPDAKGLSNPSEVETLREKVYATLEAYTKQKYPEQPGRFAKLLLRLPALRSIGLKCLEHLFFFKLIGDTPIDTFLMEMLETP
In words: Gal4 hybrid reporter gene assay RXRγ. As to conditions: HEK293T cells, n ≥ 4, read-out: RXRγ EC50 ± SEM. The method, then: as §1, §2, §3

`CC(NC(=O)c1cccc(OCc2ccccc2)c1)c1ccccc1` (stereo not drawn) [Compound 6]: the EC50 (as a rule, the concentration needed to bring the measured effect to its halfway point) was found to be 16.5 ± 0.6 µM in assay [1], 16.6 ± 0.2 µM in assay [2] and 16 ± 4 µM in assay [3].
On the same counts, the results for `CC/C(=N/NC(=S)Nc1ccc(Cl)cc1Cl)c1ccc(O)cc1` [Compound 8] are 23.7 ± 0.7 µM, 25.6 ± 0.4 µM and 32 ± 3 µM.
In the same order, the values of `Cc1ccc(NC2=NC(=O)/C(=C/c3ccc(O)cc3)S2)cc1C` [Compound 5] are 17 ± 1 µM, 14.7 ± 0.8 µM and 15 ± 0.6 µM.

Values taken from paper PMC6220272, “Scaffold-Hopping from Synthetic Drugs by Holistic Molecular Representation” (Scientific Reports, 2018).
